According to patent US4959375A, “Piperidine derivatives useful as 5-HT3 antagonists” (John Wyeth & Brothers Limited, priority 1988, dated 1990):

Target: T1, 5-HT3 receptors (Oryctolagus cuniculus, UniProt A0A5F9C9J3)
T1 construct: 5-HT3 receptors present on sympathetic nerve terminals in the heart; from tissue; host or cells: isolated right atrium of the rabbit heart
T1 sequence (A0A5F9C9J3 1-494): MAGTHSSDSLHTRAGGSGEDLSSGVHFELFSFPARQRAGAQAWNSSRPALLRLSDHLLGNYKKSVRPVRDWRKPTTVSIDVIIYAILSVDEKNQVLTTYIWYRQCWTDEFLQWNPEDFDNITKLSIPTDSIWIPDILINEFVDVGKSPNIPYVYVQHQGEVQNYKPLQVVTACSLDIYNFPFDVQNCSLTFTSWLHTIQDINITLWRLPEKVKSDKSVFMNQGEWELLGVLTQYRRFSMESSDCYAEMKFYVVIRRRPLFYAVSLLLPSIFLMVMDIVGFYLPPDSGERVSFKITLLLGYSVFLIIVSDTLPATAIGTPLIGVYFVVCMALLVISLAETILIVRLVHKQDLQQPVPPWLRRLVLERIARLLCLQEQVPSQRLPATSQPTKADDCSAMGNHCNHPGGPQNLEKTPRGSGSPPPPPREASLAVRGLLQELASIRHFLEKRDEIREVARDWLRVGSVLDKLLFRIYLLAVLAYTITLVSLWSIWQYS
Assay: 5-HT3 antagonistic activity in the isolated right atrium of the rabbit heart
Details: chronotropic response to 10^-5 M 5-HT, read-out: -log IC50 (IC50 is the concentration of antagonist which reduces the chronotropic response to 10^-5 M 5-HT by 50%) (converted)
Protocol: The compounds of the invention are tested for 5-HT3 antagonistic activity in the isolated right atrium of the rabbit heart based upon the method of Fozard J. R., Naunyn Schmiedeberg's Arch. Pharmacol., 1984, 326, 36-44. This procedure relies upon the ability of 5-HT to stimulate 5-HT3 receptors present on sympathetic nerve terminals in the heart, causing release of noradrenaline which evokes an increase in the spontaneous rate of beating. The antagonist potency is expressed as -log IC50 (where IC50 is the concentration of antagonist which reduces the chronotropic response to 10^--5 M 5-HT by 50%).

SMILES	IC50 [nM]
CN(C)C1CCCN(C(=O)c2c[nH]c3ccccc23)C1 (centres unmarked) [Example 1, 3-Dimethylamino-1-[[(1H)-indol 3 yl]carbonyl]piperidine]	20
CN(C)C1CCCN(C(=O)c2n[nH]c3ccccc23)C1 (centres unmarked) [Example 4, 3-Dimethylamino-1-[[(1H)-indazol 3 yl]carbonyl]piperidine]	7.94
